Assay results reported in publication PMC11212260, “Next-generation neuropeptide Y receptor small-molecule agonists inhibit mosquito-biting behavior” (Parasites & Vectors, 2024).
Where “and” joins values, the source holds several entries; their conditions need not be identical. Identical values can stand only once. Like-named read-outs stand apart in the source and are kept apart here.

Columns and labels:
Ae. aegypti NPYLR7 = Ae. aegypti NPYLR7 (Aedes aegypti, UniProt U5N1H5); assay: In vitro calcium (GCaMP6s) FLIPR assay in HEK293T cells transfected with NPYLR7; assay type: cell-based; conditions: for activation at 100 µM: single replicate of the dose-response curve
Protocol: The in vitro screening assay was adapted from, and carried out at HD Biosciences (HDB, Shanghai) as follows: HEK293T (Thermo Fisher Scientific) cells were grown in Dulbecco’s modified Eagle medium (DMEM) (high glucose, with glutamine), 10% fetal bovine serum, 1% penicillin–streptomycin (Pen/Strep), seeded in a 75 cm^2 flask, and incubated at 37 °C and 5% CO2. Cells were transiently transfected with 1 μg of each plasmid expressing GCaMP6s (Addgene […]) (Chen et al., 2013), mouse Gqα15 (Addgene #40753) (Offermanns and Simon, 1995) and Ae. aegypti NPYLR7 (Addgene #52392) (Duvall et al. 2019) using Lipofectamine 2000 (Invitrogen) in 4 ml of Opti-MEM (Invitrogen). This mixture was added to a plate after 20 min and incubated for 6–8 h. Cells were then trypsinized, resuspended in phenol-free media, and plated in a 384-well plate (Greiner Bio-One) at a density of 20,000 cells per 40 μl, and incubated overnight (37 °C, 5% CO2). Cells were imaged directly in phenol-free media. Plates were loaded into a Molecular Devices fluorescence imaging plate reader (FLIPR) with an excitation wavelength of 470–495 nm and an emitted wavelength of 515–575 nm. Plates were imaged every second for 5 min. After 30 s of baseline fluorescence recording, 10 μl of the test compound in reading buffer [Hank’s Balanced Salt Solution (Gibco) + 20 mM HEPES (Sigma-Aldrich)] was added. Concentrations tested ranged from 0 to 100 μM. Data were collected in raw fluorescence units (RFU).
Each test plate included replicates of 10 μM FMRFa3 (H‐Ala‐Gly‐Gln‐Gly‐Phe‐Met‐Arg‐Phe‐NH2), an Ae. aegypti neuropeptide agonist of NPYLR7 used to calculate the hundred percent effect (HPE). The zero percent effect (ZPE) control was calculated as a response to buffer alone. The Z′ factor was calculated for each plate by Z^′=1-3σHPE+3σZPE/|μHPE-μZPE| . Plates with Z′ < 0.5 were excluded from analysis. Raw fluorescence units (RFU) were converted to percent effect relative to the average of the ZPE and HPE. Percent effect = (sample luminescence − average ZPE)/(average HPE − average ZPE)×100. […] Each replicate was plotted as percent effect versus log[concentration], and replicates with maximal responses between 20 and 250% were used for EC50 calculations. Relative EC50 was calculated using an [Agonist] versus response–variable slope four-parameter model where Y=Bottom+(X^Hillslope)∗(Top-Bottom)/(X^HillSlope+EC50^HillSlope) . For compounds with multiple replicates, the relative EC50 of each replicate was averaged.

[1] = tested on: Aedes aegypti (Orlando strain) females; assay: Host-seeking screening assay (miniport olfactometer); assay type: in vivo; conditions: fed 1 μM in saline, tested 48 h post-meal; for Attraction (relative to saline): per-compound value of Fig. 3C; for Host-seeking relative to saline (test compound % host-seeking/average matched saline % host-seeking): individual replicates
Protocol: Groups of 60–150 females were placed in bucket cages with a diameter of 21.6 cm and height of 16.5 cm (VWR) and fasted with access to water for 24 h prior to feeding. Meals were delivered to females via Glytube membrane feeders as described previously. Meals consisted of 1.5 ml sheep blood (HemoStat Laboratories), saline (400 mM NaHCO3 + dih2O), or saline and test compound. Lyophilized compounds were stored at room temperature until use. High-concentration stocks (30 mM in 100% dimethyl sulfoxide [DMSO]) (Sigma-Aldrich) were stored at −20 °C and diluted in saline immediately prior to feeding. Once prepared, meals and glycerol heating elements were warmed in a 42 °C water bath for 15 min to provide warmth to attract mosquitos to feed. ATP (1 mM final concentration) and test compounds (1 μM final concentration) were added prior to placing the meal on top of the mesh on the cage containing female mosquitos. Females were allowed 15–20 min to feed to repletion. Abdominal engorgement was scored by eye and confirmed by weighing females to ensure full feeding (Data S1). […] Females were returned to their original cage with a diH2O wick for 48 h prior to behavioral testing. The lethality of each compound was measured by counting the number of dead females in each cage 24 h post-meal.
Miniport olfactometers were fabricated in-house as described previously. Information regarding design, construction, and use can be found at https://github.com/VosshallLab/Miniport-Construction. Miniport canisters consisted of a 6″ × 3″ × 3″ acrylic tube with a mesh screen to allow for air flow. Groups of 10–20 females were loaded into canisters 24 h post-meal. Females were left in canisters overnight to acclimate with two cotton balls soaked in diH20 to prevent desiccation. Behavior trials began 48 h post-meal. Canisters were randomly assigned to attraction traps 1–4 and given 5 min to acclimate. The stimulus end of the trap was connected to a flowmeter that supplied 5% CO2 at a rate of 30 ml/min. Thirty seconds of CO2 flow was supplied to activate females prior to opening the sliding door. Once opened, the sliding door gave females access to the attraction trap baited with a human-scented nylon stocking previously worn by the same experimenter for 8–10 h to collect body odor and stored in a plastic bag at −20 °C until use. After 5 min, the sliding door was closed and attraction was scored as mosquitoes in the attraction trap/total number of mosquitoes. For each experiment data were normalized to the matched average saline attraction from the same experiment (% attracted/average saline attraction). Any dead mosquitoes were excluded from the analysis. Non-fed females and blood-fed females served as environmental control groups while the saline-fed females served as the vehicle control each day. If non-fed or saline-fed females were less than 50% attracted or if blood-fed females were more than 20% attracted behavioral trials were halted and all data from that experimental day were discarded.

[2] = EC50 of the individual assay date/plate (assay date), read-out: EC50
[3] = Figure 1E Summary, third list (n = 39), read-out: Reported Metric (Summary list)
[4] = HEK-293T, single replicate, normalised response
[5] = relative EC50, percent effect relative to 10 μM FMRFa3, read-out: EC50
[6] = sheet Figure 3C, unit inferred, read-out: EC50
[7] = summary EC50 per compound (mean over assay dates), the unit is taken from the neighbouring EC50 (uM) column, read-out: Reported Metric
[8] = Figure 1E Summary, second list (n = 48), read-out: Reported Metric (Summary list)

Ae. aegypti NPYLR7, sequence (U5N1H5 entry or part of it): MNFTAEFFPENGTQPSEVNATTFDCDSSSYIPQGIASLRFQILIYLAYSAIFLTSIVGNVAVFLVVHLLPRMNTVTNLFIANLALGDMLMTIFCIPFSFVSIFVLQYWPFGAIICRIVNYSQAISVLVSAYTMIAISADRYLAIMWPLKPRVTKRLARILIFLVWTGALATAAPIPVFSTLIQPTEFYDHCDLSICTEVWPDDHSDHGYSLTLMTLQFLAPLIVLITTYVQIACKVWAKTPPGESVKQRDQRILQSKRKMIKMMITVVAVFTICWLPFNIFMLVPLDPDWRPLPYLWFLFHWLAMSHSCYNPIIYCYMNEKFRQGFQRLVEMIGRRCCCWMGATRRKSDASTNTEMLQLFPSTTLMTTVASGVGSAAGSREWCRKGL

SMILES	EC50 (Ae. aegypti NPYLR7; [2]) [µM]	EC50 (Ae. aegypti NPYLR7; [3]) [µM]	activation at 0.4115 µM (Ae. aegypti NPYLR7; [4]) [%]	activation at 1.2346 µM (Ae. aegypti NPYLR7; [4]) [%]	activation at 3.7037 µM (Ae. aegypti NPYLR7; [4]) [%]	activation at 11.1111 µM (Ae. aegypti NPYLR7; [4]) [%]	activation at 100 µM (Ae. aegypti NPYLR7; HEK-293T, normalised response) [%]	EC50 (Ae. aegypti NPYLR7; [5]) [µM]	EC50 (Ae. aegypti NPYLR7; [6]) [µM]	EC50 (Ae. aegypti NPYLR7; [7]) [µM]	Attraction (relative to saline) [1]	EC50 (Ae. aegypti NPYLR7; [8]) [µM]	Host-seeking relative to saline (test compound % host-seeking/average matched saline % host-seeking) ([1]; listed as TDI-04167)	activation at 0.1372 µM (Ae. aegypti NPYLR7; HEK-293T, 0.1372 uM, single replicate, normalised response) [%]	activation at 33.3333 µM (Ae. aegypti NPYLR7; [4]) [%]	Host-seeking relative to saline (test compound % host-seeking/average matched saline % host-seeking) ([1]; listed as TDI-04174)	Host-seeking relative to saline (test compound % host-seeking/average matched saline % host-seeking) ([1]; listed as TDI-04183)	Host-seeking relative to saline (test compound % host-seeking/average matched saline % host-seeking) ([1]; listed as TDI-04168)	Host-seeking relative to saline (test compound % host-seeking/average matched saline % host-seeking) ([1]; listed as TDI-04177)	Host-seeking relative to saline (test compound % host-seeking/average matched saline % host-seeking) ([1]; listed as TDI-03758)
COc1ccc(OCc2ccc3c(C)nc(NC(=N)N)nc3c2)cc1 [TDI-014175]	0.547	0.547	35.1	65.9	89.7	98.4	117	0.548	0.547	0.547	0.905	–	–	–	–	–	–	–	–	–
Cc1nc(NC(=N)N)nc2cc(OCC3CC3)ccc12 [TDI-014171]	0.912	0.912	–	32.9	50.2	63.8	66.3	0.912	0.912	0.912	0.79	–	–	–	–	–	–	–	–	–
Cc1nc(NC(=N)N)nc2cc(OCC3CCCOC3)ccc12 (stereo not shown) [TDI-014167]	7.37	–	–	–	–	–	66.1	7.37	7.37	7.37	0.975	7.37	0.97	–	–	–	–	–	–	–
CNc1nc(NC(=N)N)nc2cc(OCc3ccc(OC)cc3)ccc12 [TDI-014190]	0.0181	0.0181	–	77.5	–	69.9	91.9	0.0181	0.0181	0.0181	0.805	–	–	46.8	92.1	–	–	–	–	–
Cc1nc(NC(=N)N)nc2cc(OCc3cccnn3)ccc12 [TDI-014179]	39.3	–	–	–	–	–	–	39.3	39.3	39.3	0.865	39.3	–	–	23.1	–	–	–	–	–
Cc1nc(NC(=N)N)nc2cc(OCC3CCOC3)ccc12 (stereo not shown) [TDI-014174]	5.31	–	–	–	42	–	102	5.31	5.31	5.31	1	5.31	–	–	92.2	1.41	–	–	–	–
Cc1nc(NC(=N)N)nc2cc(OC3CCCc4ccccc43)ccc12 (stereo not shown) [TDI-014183]	13.7	–	–	–	–	–	–	13.7	13.7	13.7	0.88	13.7	–	–	–	–	0.97	–	–	–
Cc1nc(NC(=N)N)nc2cc(OCC(F)(F)F)ccc12 [TDI-014168]	4.26	–	–	–	–	–	74.2	4.26	4.26	4.26	1.03	4.26	–	–	80.4	–	–	1.07	–	–
CCOc1ccc2c(C)nc(NC(=N)N)nc2c1 [TDI-014177]	5.6	–	–	–	–	–	49.6	5.6	5.6	5.6	0.94	5.6	–	–	–	–	–	–	1.17 and 0.9	–
COc1ccc(COc2ccc3c(C)nc(NC(=N)N)nc3c2)cn1 [TDI-014173]	1.32	1.32	47.7	53.6	83.8	74.1	–	1.32	1.32	1.32	0.88	–	–	–	101	–	–	–	–	–
CCOc1cc2c(C)nc(NC(=N)N)nc2cc1OCc1ccccc1 [TDI-013758]	8.53	–	–	–	–	–	80.6	8.53	8.53	8.53	0.78	8.53	–	–	–	–	–	–	–	1.17
